Source: US10744087B2, “Method to slow ventricular rate” (InCarda Therapeutics, Inc., priority 2018, dated 2020)
Counter-ions that a name gives are not always drawn. Like-named read-outs stand apart in the source and are kept apart here.

Columns and labels:
[1] = system: pig models with induced atrial fibrillation; experiment: Intratracheal nebivolol or metoprolol, alone or combined with flecainide, in pig models with induced atrial fibrillation (Example 6); type: in vivo, male Yorkshire pigs
Protocol: The investigations were conducted in male Yorkshire pigs. The animals were preanesthetized with telazol (4.7 mg/kg, intramuscular) and subsequently were further anesthetized using alpha-chloralose (80-mg/kg IV bolus followed by 24-mg/kg/h continuous IV infusion). The pigs were intubated and ventilated at a constant rate of 12 breaths/min and tidal volume of 400 ml per stroke.
(§1) The catheters were positioned under fluoroscopic control. Electrograms were recorded from a decapolar electrode catheter positioned in the LV. Mean arterial pressure (MAP) was continuously recorded from a femoral arterial sheath. LV blood pressure was continuously monitored from a pigtail catheter. A catheter was introduced into the pericardial space via the right atrial appendage for delivery of intrapericardial acetylcholine. Atrial pacing at 160 beats/min was accomplished by delivering electrical stimuli to the right atrial catheter electrodes. Electrograms were monitored using a Prucka CardioLab workstation (GE Medical Systems, Milwaukee Wis.) from atrial and ventricular sites. For intratracheal instillation of metoprolol solution or sterile water, a 5 Fr angiography catheter was introduced into the trachea via the endotracheal tube, extending ˜1 cm past the tube, and its tip was positioned under fluoroscopy at the tracheal carina level.
Metoprolol obtained in powder form was used to prepare a stock solution of 15.3 mg/ml by dissolving the drug in 100% dimethyl sulfoxide (DMSO). A volume was withdrawn from the stock solution to achieve a 2 mg/kg IT dose and was supplemented with sterile water to attain a 2 ml total volume for bolus injection.
For Nebivolol (racemic mixtures of d- and l-nebivolol), a stock solution of 25 mg/ml was prepared by dissolving the drug in 100% DMSO. The dose was 0.3 mg/kg for intratracheal instillation. The corresponding volume was withdrawn from the stock solution based on body weight of the pig, and the allocated volume was completed with sterile water to attain 2 ml total volume. The administration was made with a 5 cc syringe with 2 ml of 0.3 mg/kg nebivolol solution and 3 ml of air.
AF was induced with 1 mL of a 102.5 mM solution of acetylcholine bolus delivered through the pericardial catheter, followed by saline flush (2 mL). Burst pacing at a cycle length of 178 ms was performed at 1 minute after intrapericardial administration of ACh. After AF initiation, lavage was carried out with 20 mL of saline.
For the intratracheal instillation of metoprolol (0.2 mg/kg or 0.4 mg/kg), nebivolol (0.3 mg/kg), flecainide (0.75 mg/kg), or cocktail of metoprolol and flecainide (0.2 mg/kg and 0.75 mg/kg, respectively), the drug agent was administered in 2 mL total volume in a single “push” of 2-3 seconds, followed by 3 ml of air in a 5 ml syringe, via the […] Sterile water (2 ml) was used as a placebo for intratracheal instillation in the baseline AF. A washout period of 30 to 60 min was allowed between inductions of each occurrence of AF.
AF duration was compared starting at 2 min after AF was induced, when the IT instillation was administered. The average ventricular rate for each AF was obtained by the mean of six measurements of ventricular rate performed each 30 seconds between the IT delivery (sterile water or metoprolol instillation) and the AF conversion to sinus rhythm.
For the study of nebivolol, in 2 of the 4 animals that were tested, at 60 min following nebivolol administration, flecainide was administered to test the effect of combined use of nebivolol and flecainide. For the study of metoprolol, given that metoprolol can have a short half-life in vivo, the effect of combined use of metoprolol and flecainide was tested by giving a second IT dose of metoprolol-flecainide cocktail 60 min following the first IT dose of metoprolol in the animals.

[2] = system: pig models of induced atrial fibrillation; experiment: Intratracheal metoprolol in pig model of acetylcholine/burst-pacing induced atrial fibrillation (Example 5): AF duration, PR interval, dominant frequency, ventricular rate; type: in vivo, male Yorkshire pigs; conditions: for reduction of ventricular rate during AF: IT metoprolol 0.2 mg/kg vs baseline AF with sterile water
Protocol: Experiments described herein (e.g., Examples 5-7) complied with the National Institutes of Health Guide for the Care and Use of Laboratory Animals as well as the Declaration of Helsinki. The protocol was approved by the institutional animal use committee of Beth Israel Deaconess Medical Center (Boston Mass.). The investigations were conducted in male Yorkshire pigs weighing 46±1.8 kg. The animals were preanesthetized with telazol (4.7 mg/kg, intramuscular) and subsequently were further anesthetized using alpha-chloralose (80-mg/kg IV bolus followed by 24-mg/kg/h continuous IV infusion). The pigs were intubated and ventilated at a constant rate of 12 breaths/min and tidal volume of 400 ml per stroke. The catheters were positioned under fluoroscopic control. Electrograms were recorded from a decapolar electrode catheter positioned in the LV. Mean arterial pressure (MAP) was continuously recorded from a femoral arterial sheath. LV blood pressure was continuously monitored from a pigtail catheter. A catheter was introduced into the pericardial space via the right atrial appendage for delivery of intrapericardial acetylcholine. Atrial pacing at 160 beats/min was accomplished by delivering electrical stimuli to the right atrial catheter electrodes. Electrograms were monitored using a Prucka CardioLab workstation (GE Medical Systems, Milwaukee Wis.) from atrial and ventricular sites. For intratracheal instillation of metoprolol solution or sterile water, a 5 Fr angiography catheter was introduced into the trachea via the endotracheal tube, extending ˜1 cm past the tube, and its tip was positioned under fluoroscopy at the tracheal carina level. Metoprolol solutions of 0.2 mg/kg for intratracheal instillation were prepared by dilution of stock solution of 15.3 mg/ml in saline, originally obtained from metoprolol in powder form by dilution in dimethyl sulfoxide (DMSO). Plasma samples were analyzed using a high-performance liquid chromatography tandem mass spectrometric assay at Climax Laboratories, Inc. (San Jose Calif.). AF was induced with 1 mL of a 102.5 mM solution of acetylcholine bolus delivered through the pericardial catheter, followed by saline flush (2 mL). Burst pacing at a cycle length of 178 ms was performed at 1 minute after intrapericardial administration of ACh. After AF initiation, lavage was carried out with 20 ml of saline. For the intratracheal instillation of metoprolol (2 ml of 0.2 mg/kg concentration followed by 3 ml of air in a 5 ml syringe), the agent was administered in a single “push” via the modified angiography catheter positioned in the endotracheal tube at the beginning of the inspiration phase after two minutes of consolidated atrial fibrillation. Sterile water (2 ml) was used as a placebo for intratracheal instillation in the baseline AF. A washout period of 30 to 60 min was allowed between inductions of each occurrence of AF. AF duration was compared starting at 2 min after AF was induced, when the IT instillation was administered. The average ventricular rate for each AF was obtained by the mean of six measurements of ventricular rate performed each 30 seconds between the IT delivery (sterile water or metoprolol instillation) and the AF conversion to sinus rhythm. Contractility (LV dP/dt) and MAP were recorded during atrial pacing at 160 beats/min before AF was induced and after it was terminated. Statistical analyses were performed using the SAS system (version 9.4) to apply ANOVA with post-hoc Dunnett's test for each time point. Data are reported as means±SEM. Statistical significance was assumed at p<0.05.

atrial arrhythmia = conditions: intravenous, 5 to 15 mg bolus doses; cited from earlier work
animal models of AF = experiment: Intratracheal co-delivery of metoprolol and flecainide in pig AF models (Example 7); type: in vivo, male Yorkshire pigs
Protocol: Experimental animal models of AF (male Yorkshire pigs), and study reagents (metoprolol and flecainide) were prepared according to similar procedures described in Examples 5 and 6. In this example, the animals received IT administration of either metoprolol alone (0.2 mg/kg or 0.4 mg/kg), a cocktail of metoprolol and flecainide (0.2 mg/kg and 0.75 mg/kg, respectively, or 0.4 mg/kg and 0.75 mg/kg, respectively), or flecainide alone (0.75 mg/kg).

[3] = system: pig models of induced atrial fibrillation; experiment: Left ventricular contractility (LV dP/dt) and mean arterial pressure before and after AF, atrial pacing 160 beats/min (Example 5); type: in vivo, male Yorkshire pigs; conditions: IT metoprolol 0.2 mg/kg
Protocol: as §1, with “level. AF duration was compared starting at 2 min after AF was induced, when the IT instillation was administered. The average ventricular rate for each AF was obtained by the mean of six measurements of ventricular rate performed each 30 seconds between the IT delivery (sterile water or metoprolol instillation) and the AF conversion to sinus rhythm. Contractility (LV dP/dt) and MAP were recorded during atrial pacing at 160 beats/min before AF was induced and after it was terminated. Statistical analyses were performed using the SAS system (version 9.4) to apply ANOVA with post-hoc Dunnett's test for each time point. Data are reported as means±SEM. Statistical significance was assumed at p<0.05.” for “level.”

[4] = cited from earlier work
[5] = system: new onset atrial fibrillation or flutter; conditions: esmolol-treated patients with new onset atrial fibrillation or flutter; cited from earlier work
atrial fibrillation = conditions: given in oral pills; several studies (Ferreira 1997 review); cited from earlier work
[6] = AF induced 30 min after IT nebivolol 0.3 mg/kg

In the case of `COCCc1ccc(OCC(O)CNC(C)C)cc1` (racemic) [metoprolol, (±) 1-(isopropylamino)-3-[p-(2-methoxyethyl)phenoxy]-2-propanol], the “reduction of ventricular rate during AF” value ([1]; AF 30 min after IT metoprolol 0.2 mg/kg) is reported as “moderate”, the “shortening of the AF duration” value ([1]; AF induced 30 min after IT metoprolol 0.2 mg/kg) is reported as “about 36%” and the “shortening of the AF duration” value ([1]; AF induced right after IT metoprolol 0.2 mg/kg alone, vs placebo baseline AF) is reported as “about 28%”. For the same compound, the “reduction in ventricular rate during AF” value ([1]; AF induced right after IT metoprolol 0.2 mg/kg, vs baseline AF) was “about 13%”, the “occurrence of atrial flutter during conversion” value ([2]; IT metoprolol 0.2 mg/kg) was “In none of the animals did atrial flutter occur” and the “reduction of ventricular rate during AF” value [2] was 12±2.6%. For the same compound, the “reduction of ventricular rate during AF” value ([2]; p=0.007) was 32 beats/min, the “reduction of AF dominant frequency” value ([2]; IT metoprolol 0.2 mg/kg vs baseline AF, p=0.04) was 31% and the “shortening of the AF duration” value ([2]; IT metoprolol 0.2 mg/kg vs placebo baseline AF (sterile water IT), p=0.018) was 20.4±4.9%. The AF dominant frequency ([2]; IT metoprolol 0.2 mg/kg, baseline AF 8.7±0.94) was 6±1.1 Hz, the “ventricular rate during AF” value ([2]; IT metoprolol 0.2 mg/kg, baseline AF 272±13.7) was 240±12.6 beats/min and the AF duration ([2]; IT metoprolol 0.2 mg/kg, placebo baseline 10.3±2.0, mean±SEM) was 8.0 ± 1.5 min. The PR interval ([2]; metoprolol 0.2 mg/kg bolus IT, from 174±11.2, p=0.07) was 182 ± 11.4 ms, the “increase in PR interval” value ([2]; metoprolol 0.2 mg/kg bolus IT, trend, p=0.07) was 4% and the “conversion rate of atrial arrhythmia” value (atrial arrhythmia) was 13%. For the same compound, the “patients with rate reduced at least 25% or to less than 100 bpm” value (atrial arrhythmia) was 68%, the “reduction in the AF duration” value (animal models of AF; IT 0.2 mg/kg metoprolol alone) was “about 20%” and the “reduction in the average ventricular rate during the AF conversion” value (animal models of AF; IT 0.2 mg/kg metoprolol alone) was “about 10%”. The “reduction in the AF duration” value (animal models of AF; IT 0.4 mg/kg metoprolol alone) was “about 27%”, the “reduction in the average ventricular rate during the AF conversion” value (animal models of AF; IT 0.4 mg/kg metoprolol alone) was “about 10%” and the “MAP after AF” value ([3]; before AF 125±4.3, p=0.26, pacing 160 beats/min) was 118±4.0. The “contractility (LV dP/dt) after AF conversion” value ([3]; before AF 2337±252.7, pacing 160 beats/min) was 1951±277.9, the “change in MAP” value ([3]; before vs after AF) was “no significant changes” and the “reduction in contractility (LV dP/dt) after conversion” value ([3]; pacing 160 beats/min, p=0.006, not different from AF baseline reduction (p=0.85)) was 17.5±4.0%.

With `OC(CNCC(O)C1CCc2cc(F)ccc2O1)C1CCc2cc(F)ccc2O1` (racemic) [nebivolol, 2,2′-Azanediylbis(1-(6-fluorochroman-2-yl)ethanol)] the “reduction in ventricular rate during AF” value [1, 6] was “about 22%”, the “shortening of the AF duration” value [1, 6] was “about 33%” and the “reduction in ventricular rate during AF” value ([1]; AF induced right after IT nebivolol 0.3 mg/kg) was “about 10%”. For the same compound, the “shortening of the AF duration” value ([1]; IT nebivolol 0.3 mg/kg, administered right before the AF induction, vs placebo baseline AF) was “about 24%” and the water solubility ([4]; water) was “low water solubility”.

For `COC(=O)CCc1ccc(OCC(O)CNC(C)C)cc1` (centres unmarked) [esmolol], the “patients converted to sinus rhythm” value [5] is given as “about 50%”.

In the case of `OC(CNCC(O)C1CCc2cc(F)ccc2O1)C1CCc2cc(F)ccc2O1` (centres unmarked) [Nebivolol hydrochloride], the solubility ([4]; in ethanol, propylene glycol, and polyethylene glycol) is given as “sparingly soluble”, the solubility ([4]; in hexane, dichloromethane, and methylbenzene) is given as “very slightly soluble” and the solubility ([4]; in methanol, dimethylsulfoxide, and N,N-dimethylformamide) is given as “soluble”.

For `CC(C)NCC(O)c1ccc(NS(C)(=O)=O)cc1` (centres unmarked) [soltalol], the “efficacy for acute conversion of atrial fibrillation to normal sinus rhythm” value (atrial fibrillation) is listed as 8-49%.

For `O=C(NCC1CCCCN1)c1cc(OCC(F)(F)F)ccc1OCC(F)(F)F` (centres unmarked) [flecainide], the “reduction in the average ventricular rate during AF” value (animal models of AF; IT 0.75 mg/kg flecainide alone) was “about 10%”.
